Source: PubChem BioAssay AID2060617 (Molecular Pharmacology Branch, DTP, NCI, 2025)
Several values for one entry are separate records, joined by “and”; a condition that tells them apart may be missing. Equal values may be shown once.

Tested on: 485368-065-R4-J2-PDC spheroids with HUVEC/MSC, viability
Test: Anticancer human tumor 485368-065-R4-J2-PDC patient-derived pancreatic carcinoma cell line growth inhibition [CLK]
Settings: for viability, T/C: stronger effect = lower value
Summary of the method: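 Patient-derived tumor cells grown as complex spheroids with HUVEC endothelial cells and mesenchymal stem cells, treated with drug combinations. Concentrations descend in half-log steps from near clinical Cmax, or from 10 microM if Cmax unknown.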

[1] = curve of first compound, second compound 0.0316 µM
[2] = curve of first compound, second compound 0.1 µM
[3] = curve of first compound, second compound 0.316 µM
[4] = curve of first compound, second compound 1 µM
[5] = curve of first compound, second compound 3.16 µM
[6] = curve of first compound, second compound 10 µM
[7] = second compound 0.0316 µM, first compound 0.0316 µM
[8] = second compound 0.0316 µM, first compound 0.1 µM
[9] = second compound 0.0316 µM, first compound 0.316 µM
[10] = second compound 0.0316 µM, first compound 1 µM
[11] = second compound 0.1 µM, first compound 0.0316 µM
[12] = second compound 0.1 µM, first compound 0.1 µM
[13] = second compound 0.1 µM, first compound 0.316 µM
[14] = second compound 0.1 µM, first compound 1 µM
[15] = second compound 0.316 µM, first compound 0.0316 µM
[16] = second compound 0.316 µM, first compound 0.1 µM
[17] = second compound 0.316 µM, first compound 0.316 µM
[18] = second compound 0.316 µM, first compound 1 µM
[19] = second compound 1 µM, first compound 0.0316 µM
[20] = second compound 1 µM, first compound 0.1 µM
[21] = second compound 1 µM, first compound 0.316 µM
[22] = second compound 1 µM, first compound 1 µM
[23] = second compound 3.16 µM, first compound 0.0316 µM
[24] = second compound 3.16 µM, first compound 0.1 µM
[25] = second compound 3.16 µM, first compound 0.316 µM
[26] = second compound 3.16 µM, first compound 1 µM
[27] = second compound 10 µM, first compound 0.0316 µM
[28] = second compound 10 µM, first compound 0.1 µM
[29] = second compound 10 µM, first compound 0.316 µM
[30] = second compound 10 µM, first compound 1 µM
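Also: spheroids exposed to compounds for seven days.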
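For viability, T/C in this document: 100% = DMSO vehicle control wells.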

Compound `C=CC(=O)Nc1cc(Nc2nccc(-c3cn(C)c4ccccc34)n2)c(OC)cc1N(C)CCN(C)C` + CN1CCN(c2cc(C(=O)Nc3cc4cc(-c5cnn(C)c5)ccc4cn3)ccn2)CC1 has an IC50 [1] greater than 300 nM, an IC50 [2] greater than 300 nM and an IC50 [3] greater than 300 nM. For the same compound, the IC50 [4] was less than 0.949 nM, the IC50 [5] was less than 0.949 nM and the IC50 [6] was less than 0.949 nM. For the same compound, the viability, T/C (second compound 0.0316 µM, first compound 0.000949 µM) was 106%, the viability, T/C (second compound 0.0316 µM, first compound 0.003 µM) was 113% and the viability, T/C (second compound 0.0316 µM, first compound 0.00949 µM) was 99.1%. For the same compound, the viability, T/C (second compound 0.0316 µM, first compound 0.03 µM) was 101%, the viability, T/C (second compound 0.0316 µM, first compound 0.0949 µM) was 103% and the viability, T/C (second compound 0.0316 µM, first compound 0.3 µM) was 100%. For the same compound, the viability, T/C (second compound 0.1 µM, first compound 0.000949 µM) was 114%, the viability, T/C (second compound 0.1 µM, first compound 0.003 µM) was 113% and the viability, T/C (second compound 0.1 µM, first compound 0.00949 µM) was 112%. It also gave a viability, T/C (second compound 0.1 µM, first compound 0.03 µM) of 113%, a viability, T/C (second compound 0.1 µM, first compound 0.0949 µM) of 105% and a viability, T/C (second compound 0.1 µM, first compound 0.3 µM) of 103%. For the same compound, the viability, T/C (second compound 0.316 µM, first compound 0.000949 µM) was 75.7%, the viability, T/C (second compound 0.316 µM, first compound 0.003 µM) was 83.8% and the viability, T/C (second compound 0.316 µM, first compound 0.00949 µM) was 84.6%. For the same compound, the viability, T/C (second compound 0.316 µM, first compound 0.03 µM) was 85.3%, the viability, T/C (second compound 0.316 µM, first compound 0.0949 µM) was 82.7% and the viability, T/C (second compound 0.316 µM, first compound 0.3 µM) was 74.2%. It also gave a viability, T/C (second compound 1 µM, first compound 0.000949 µM) of 1.06%, a viability, T/C (second compound 1 µM, first compound 0.003 µM) of 1.02% and a viability, T/C (second compound 1 µM, first compound 0.00949 µM) of 0.96%. The viability, T/C (second compound 1 µM, first compound 0.03 µM) was 0.9%, the viability, T/C (second compound 1 µM, first compound 0.0949 µM) was 1.6% and the viability, T/C (second compound 1 µM, first compound 0.3 µM) was 0.54%. For the same compound, the viability, T/C (second compound 3.16 µM, first compound 0.000949 µM) was 1.42%, the viability, T/C (second compound 3.16 µM, first compound 0.003 µM) was 2.3% and the viability, T/C (second compound 3.16 µM, first compound 0.00949 µM) was 1.16%. It also gave a viability, T/C (second compound 3.16 µM, first compound 0.03 µM) of 2.05%, a viability, T/C (second compound 3.16 µM, first compound 0.0949 µM) of 2.29% and a viability, T/C (second compound 3.16 µM, first compound 0.3 µM) of 2.5%. It also gave a viability, T/C (second compound 10 µM, first compound 0.000949 µM) of 1.61%, a viability, T/C (second compound 10 µM, first compound 0.003 µM) of 3.07% and a viability, T/C (second compound 10 µM, first compound 0.00949 µM) of 1.3%. For the same compound, the viability, T/C (second compound 10 µM, first compound 0.03 µM) was 1.38%, the viability, T/C (second compound 10 µM, first compound 0.0949 µM) was 2.42% and the viability, T/C (second compound 10 µM, first compound 0.3 µM) was 2.16%.
In the case of `CC1COCCN1c1cc(C2(S(C)(=N)=O)CC2)nc(-c2ccnc3[nH]ccc23)n1` (configuration not stated) + CN1CCN(c2cc(C(=O)Nc3cc4cc(-c5cnn(C)c5)ccc4cn3)ccn2)CC1, the IC50 [1] is reported as greater than 10000 nM, the IC50 [2] is reported as greater than 10000 nM and the IC50 [3] is reported as 6830 nM. The IC50 [4] was less than 31.6 nM, the IC50 [5] was less than 31.6 nM and the IC50 [6] was less than 31.6 nM. The viability, T/C [7] was 102%, the viability, T/C [8] was 111% and the viability, T/C [9] was 102%. The viability, T/C [10] was 119%, the viability, T/C (second compound 0.0316 µM, first compound 3.16 µM) was 118% and the viability, T/C (second compound 0.0316 µM, first compound 10 µM) was 107%. The viability, T/C [11] was 107%, the viability, T/C [12] was 119% and the viability, T/C [13] was 113%. The viability, T/C [14] was 120%, the viability, T/C (second compound 0.1 µM, first compound 3.16 µM) was 103% and the viability, T/C (second compound 0.1 µM, first compound 10 µM) was 90.9%. For the same compound, the viability, T/C [15] was 88.5%, the viability, T/C [16] was 88.3% and the viability, T/C [17] was 74.8%. It also gave a viability, T/C [18] of 75.2%, a viability, T/C (second compound 0.316 µM, first compound 3.16 µM) of 60.3% and a viability, T/C (second compound 0.316 µM, first compound 10 µM) of 44.4%. For the same compound, the viability, T/C [19] was 1%, the viability, T/C [20] was 1.87% and the viability, T/C [21] was 1.95%. It also gave a viability, T/C [22] of 1.83%, a viability, T/C (second compound 1 µM, first compound 3.16 µM) of 1.71% and a viability, T/C (second compound 1 µM, first compound 10 µM) of 2.07%. The viability, T/C [23] was 1.39%, the viability, T/C [24] was 2.33% and the viability, T/C [25] was 2.68%. For the same compound, the viability, T/C [26] was 2.72%, the viability, T/C (second compound 3.16 µM, first compound 3.16 µM) was 3.59% and the viability, T/C (second compound 3.16 µM, first compound 10 µM) was 1.89%. It also gave a viability, T/C [27] of 1.49%, a viability, T/C [28] of 2.62% and a viability, T/C [29] of 2.44%. It also gave a viability, T/C [30] of 1.98%, a viability, T/C (second compound 10 µM, first compound 3.16 µM) of 1.76% and a viability, T/C (second compound 10 µM, first compound 10 µM) of 3.15%.
`C=CC(=O)Nc1cc(Nc2nccc(-c3cn(C)c4ccccc34)n2)c(OC)cc1N(C)CCN(C)C` was tested, and the viability, T/C (compound 0.000949 µM) was 109% and 99.5%, the viability, T/C (compound 0.003 µM) was 97.1% and 97.7% and the viability, T/C (compound 0.00949 µM) was 97.5% and 83.8%. For the same compound, the viability, T/C (compound 0.03 µM) was 104% and 97.5%, the viability, T/C (compound 0.0949 µM) was 110% and 96.7% and the viability, T/C (compound 0.3 µM) was 107% and 99.8%. For the same compound, the IC50 (curve of compound) was greater than 300 nM.
For `CC(C)CC(NC(=O)C(Cc1ccccc1)NC(=O)c1cnccn1)B(O)O` (configuration not stated), the viability, T/C (compound 0.000949 µM) was 89.2% and 97.4%, the viability, T/C (compound 0.003 µM) was 109% and 134% and the viability, T/C (compound 0.00949 µM) was 31.1%. For the same compound, the viability, T/C (compound 0.03 µM) was 23.3% and 18.4%, the viability, T/C (compound 0.0949 µM) was 12.5% and 15.6% and the viability, T/C (compound 0.3 µM) was 5.93% and 5.56%. For the same compound, the IC50 (curve of compound) was 6.88 nM and 7.33 nM.
In the case of `C#Cc1c(F)ccc2cc(O)cc(-c3ncc4c(N5CC6CCC(C5)N6)nc(OCC56CCCN5CC(F)C6)nc4c3F)c12` (configuration not stated), the viability, T/C (compound 0.0316 µM) is reported as 99.6% and 90.9%, the viability, T/C (compound 0.1 µM) is reported as 97.5% and 111% and the viability, T/C (compound 0.316 µM) is reported as 102% and 103%. The viability, T/C (compound 1 µM) was 98.2% and 102%, the viability, T/C (compound 3.16 µM) was 117% and 107% and the viability, T/C (compound 10 µM) was 114% and 106%. For the same compound, the IC50 (curve of compound) was greater than 10000 nM.
`COc1c(OCCCN2CCOCC2)ccc2c3n(c(=NC(=O)c4cnc(N)nc4)nc12)CCN3` + CN1CCN(c2cc(C(=O)Nc3cc4cc(-c5cnn(C)c5)ccc4cn3)ccn2)CC1 showed an IC50 [1] of 245 nM, an IC50 [2] of 117 nM and an IC50 [3] of 22 nM. For the same compound, the IC50 [4] was less than 3.16 nM, the IC50 [5] was less than 3.16 nM and the IC50 [6] was less than 3.16 nM. For the same compound, the viability, T/C (second compound 0.0316 µM, first compound 0.00316 µM) was 102%, the viability, T/C (second compound 0.0316 µM, first compound 0.01 µM) was 113% and the viability, T/C [7] was 85.8%. For the same compound, the viability, T/C [8] was 71.3%, the viability, T/C [9] was 42% and the viability, T/C [10] was 37.8%. For the same compound, the viability, T/C (second compound 0.1 µM, first compound 0.00316 µM) was 93.7%, the viability, T/C (second compound 0.1 µM, first compound 0.01 µM) was 99.9% and the viability, T/C [11] was 82.7%. It also gave a viability, T/C [12] of 53.7%, a viability, T/C [13] of 32.4% and a viability, T/C [14] of 33.2%. The viability, T/C (second compound 0.316 µM, first compound 0.00316 µM) was 69.4%, the viability, T/C (second compound 0.316 µM, first compound 0.01 µM) was 61.1% and the viability, T/C [15] was 45.1%. It also gave a viability, T/C [16] of 22.4%, a viability, T/C [17] of 16.4% and a viability, T/C [18] of 22.5%. For the same compound, the viability, T/C (second compound 1 µM, first compound 0.00316 µM) was 2.4%, the viability, T/C (second compound 1 µM, first compound 0.01 µM) was 1.65% and the viability, T/C [19] was 1.92%. It also gave a viability, T/C [20] of 0.96%, a viability, T/C [21] of 1.07% and a viability, T/C [22] of 5.51%. The viability, T/C (second compound 3.16 µM, first compound 0.00316 µM) was 1.02%, the viability, T/C (second compound 3.16 µM, first compound 0.01 µM) was 2.04% and the viability, T/C [23] was 1.56%. It also gave a viability, T/C [24] of 1.95%, a viability, T/C [25] of 2.07% and a viability, T/C [26] of 1.38%. For the same compound, the viability, T/C (second compound 10 µM, first compound 0.00316 µM) was 1.34%, the viability, T/C (second compound 10 µM, first compound 0.01 µM) was 2.28% and the viability, T/C [27] was 3.18%. For the same compound, the viability, T/C [28] was 3.27%, the viability, T/C [29] was 2.35% and the viability, T/C [30] was 2%.
